Measurements as given in patent publication US20140249135A1, “PIM KINASE INHIBITORS AND METHODS OF THEIR USE” (NOVARTIS AG, priority 2007, published 2014).
Read-outs that look alike come from different tables or passages of the source.

Assays:
Format in all cases: biochemical
[1] = target: Pim1 kinase (Homo sapiens, UniProt P11309); assay: Pim1 ATP depletion assay; settings: Pim1 ATP depletion assay;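 also: Luciferase-luciferin luminescence readout of residual ATP after PIM1 transfers phosphate to a peptide substrate, 40 µM ATP added, reaction run to roughly half ATP consumption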
Pim1 kinase, sequence (P11309 whole entry): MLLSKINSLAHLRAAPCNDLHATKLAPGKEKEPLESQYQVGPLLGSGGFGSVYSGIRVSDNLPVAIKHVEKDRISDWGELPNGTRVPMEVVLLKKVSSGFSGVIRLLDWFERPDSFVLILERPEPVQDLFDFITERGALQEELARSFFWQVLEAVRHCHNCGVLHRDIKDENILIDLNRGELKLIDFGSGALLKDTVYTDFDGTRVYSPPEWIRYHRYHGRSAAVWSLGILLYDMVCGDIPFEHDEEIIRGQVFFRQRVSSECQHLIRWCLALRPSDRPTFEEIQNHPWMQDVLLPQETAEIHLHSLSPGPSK

[2] = target: Pim3 kinase (Homo sapiens, UniProt Q86V86); assay: Pim3 ATP depletion assay
[3] = target: Pim2 kinase (Homo sapiens, UniProt Q9P1W9); assay: Pim2 ATP depletion assay;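 also: Luciferase-based luminescent readout of ATP remaining after PIM2 phosphorylates a BAD peptide, final 5 nM enzyme, 4 µM ATP, 10 µM peptide, 2.5% DMSO, run to roughly half ATP consumption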
Pim2 kinase, sequence (Q9P1W9 whole entry): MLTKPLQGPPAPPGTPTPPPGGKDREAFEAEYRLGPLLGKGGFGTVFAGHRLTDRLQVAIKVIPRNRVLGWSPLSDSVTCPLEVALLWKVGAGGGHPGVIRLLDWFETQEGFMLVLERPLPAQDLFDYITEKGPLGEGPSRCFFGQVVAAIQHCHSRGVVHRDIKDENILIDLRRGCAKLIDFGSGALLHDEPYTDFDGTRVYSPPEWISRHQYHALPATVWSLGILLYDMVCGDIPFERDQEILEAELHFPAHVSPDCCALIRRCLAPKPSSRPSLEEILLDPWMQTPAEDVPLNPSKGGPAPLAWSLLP

Measured: IC50

CCC(CC)c1ccc(N)c(C(=O)Nc2cnccc2N2CCC[C@H](N)C2)n1 [Example 634, 3-Amino-6-(1-ethyl-propyl)-pyridine-2-carboxylic acid (3-amino-3,4,5,6-tetrahydro-2H-[1,4′]bipyridinyl-3′-yl)-amide]
< 1 µM: [1]; read-out: PIM1 IC50 | [2]; read-out: PIM3 IC50 | [3]; read-out: PIM2 IC50

Cc1ccc(-c2ccc(N)c(C(=O)Nc3cnccc3N3CCC[C@H](N)C3)n2)nc1 [Example 725, 5-Amino-5′-methyl-[2,2′]bi-pyridinyl-6-carboxylic acid (3-amino-3,4,5,6-tetrahydro-2H-[1,4′]bipyridinyl-3′-yl)-amide]
< 1 µM: [1]; read-out: PIM1 IC50 | [2]; read-out: PIM3 IC50 | [3]; read-out: PIM2 IC50

COc1cc(-c2ccncc2NC(=O)c2nc(-c3c(F)cccc3F)ccc2N)cc(N)n1 [Example 608, 3-Amino-6-(2,6-difluoro-phenyl)-pyridine-2-carboxylic acid (6′-amino-2′-methoxy-[4,4′]bi-pyridinyl-3-yl)-amide]
< 1 µM: [1]; read-out: PIM1 IC50 | [2]; read-out: PIM3 IC50 | [3]; read-out: PIM2 IC50

Nc1ccc(-c2ncccc2F)nc1C(=O)Nc1cnccc1N1CCC(O)C(N)C1 (stereo not drawn) [Example 735, 5-Amino-3′-fluoro-[2,2′]bi-pyridinyl-6-carboxylic acid (3-amino-4-hydroxy-3,4,5,6-tetra-hydro-2H-[1,4′]bipyridinyl-3′-yl)-amide]
< 1 µM: [1]; read-out: PIM1 IC50 | [2]; read-out: PIM3 IC50 | [3]; read-out: PIM2 IC50

Nc1ccc(-c2c(F)cccc2F)nc1C(=O)Nc1cnccc1N1CC[C@@H](F)[C@H](N)C1 [Example 277, 3-Amino-6-(2,6-difluoro-phenyl)-pyridine-2-carboxylic acid (3-amino-4-fluoro-3,4,5,6-tetrahydro-2H-[1,4′]bipyridinyl-3′-yl)-amide]
< 1 µM: [1]; read-out: IC50 (μM) PIM1 | [2]; read-out: IC50 (μM) PIM3 | [3]; read-out: IC50 (μM) PIM2

NC(=O)c1ccnc(-c2ccc(N)c(C(=O)Nc3cnccc3N3CCC[C@H](N)C3)n2)c1 [Example 704, 5′-Amino-[2,2′]bipyridinyl-4,6′-dicarboxylic acid 4-amide 6′-[(3-amino-3,4,5,6-tetrahydro-2H-[1,4′]bipyridinyl-3′-yl)-amide]]
< 1 µM: [1]; read-out: PIM1 IC50 | [2]; read-out: PIM3 IC50 | [3]; read-out: PIM2 IC50

COc1ccc(F)c(-c2ccc(N)c(C(=O)Nc3cnccc3N3CCC[C@H](N)C3)n2)c1F [Example 493, 3-Amino-6-(2,6-difluoro-3-methoxy-phenyl)-pyridine-2-carboxylic acid (3-amino-3,4,5,6-tetrahydro-2H-[1,4′]bipyridinyl-3′-yl)-amide]
< 1 µM: [1]; read-out: IC50 (μM) PIM1 | [2]; read-out: IC50 (μM) PIM3 | [3]; read-out: IC50 (μM) PIM2

Nc1ccc(-c2ccccc2F)nc1C(=O)Nc1cnccc1N1CCCC(O)C1 (stereo not drawn) [Example 661, 3-Amino-6-(2-fluoro-phenyl)-pyridine-2-carboxylic acid (3-hydroxy-3,4,5,6-tetrahydro-2H-[1,4′]bipyridinyl-3′-yl)-amide]
< 1 µM: [1]; read-out: PIM1 IC50 | [2]; read-out: PIM3 IC50 | [3]; read-out: PIM2 IC50

Nc1ccc(-c2nccs2)nc1C(=O)Nc1cnccc1N1CC[C@@H](O)[C@H](N)C1 [Example 669, 3-Amino-6-thiazol-2-yl-pyridine-2-carboxylic acid (3-amino-4-hydroxy-3,4,5,6-tetra-hydro-2H-[1,4′]bipyridinyl-3′-yl)-amide]
< 1 µM: [1]; read-out: PIM1 IC50 | [2]; read-out: PIM3 IC50 | [3]; read-out: PIM2 IC50

COc1nc(-c2ccc(N)c(C(=O)Nc3cnccc3N3CCC[C@H](N)C3)n2)cnc1N [Example 731, 3-Amino-6-(5-amino-6-methoxy-pyrazin-2-yl)-pyridine-2-carboxylic acid (3-amino-3,4,5,6-tetrahydro-2H-[1,4′]bi-pyridinyl-3′-yl)-amide]
< 1 µM: [1]; read-out: PIM1 IC50 | [2]; read-out: PIM3 IC50 | [3]; read-out: PIM2 IC50

COc1ccc(F)c(-c2nc(C(=O)Nc3cnccc3N3CCC[C@H](N)C3)c(N)cc2F)c1F [Example 510, 3-Amino-6-(2,6-difluoro-3-methoxy-phenyl)-5-fluoro-pyridine-2-carboxylic acid (3-amino-3,4,5,6-tetrahydro-2H-[1,4′]bipyridinyl-3′-yl)-amide]
< 1 µM: [1]; read-out: IC50 (μM) PIM1 | [2]; read-out: IC50 (μM) PIM3 | [3]; read-out: IC50 (μM) PIM2

Nc1ccc(-c2c(F)cccc2F)nc1C(=O)Nc1cnccc1N1C[C@@H](N)C[C@H](O)C1 [Example 297, 3-Amino-6-(2,6-difluoro-phenyl)-pyridine-2-carboxylic acid (3-amino-5-hydroxy-3,4,5,6-tetrahydro-2H-[1,4′]bipyridinyl-3′-yl)-amide]
< 1 µM: [1]; read-out: IC50 (μM) PIM1 | [2]; read-out: IC50 (μM) PIM3 | [3]; read-out: IC50 (μM) PIM2

Nc1ncc(-c2ccc(N)c(C(=O)Nc3cnccc3N3CCC[C@H](N)C3)n2)c(N)n1 [Example 417, 3-amino-6-(2,4-diamino-pyrimidin-5-yl)-pyridine-2-carboxylic acid ((S)-3-amino-3,4,5,6-tetrahydro-2H-[1,4′]bi-pyridinyl-3′-yl)-amide]
< 1 µM: [1]; read-out: IC50 (μM) PIM1 | [2]; read-out: IC50 (μM) PIM3 | [3]; read-out: IC50 (μM) PIM2

CN(C)C(=O)c1ccc(F)c(-c2nc(C(=O)Nc3cnccc3N3CCC[C@H](N)C3)c(N)cc2F)c1 [Example 515, 3-Amino-6-(5-dimethylcarbamoyl-2-fluoro-phenyl)-5-fluoro-pyridine-2-carboxylic acid (3-amino-3,4,5,6-tetrahydro-2H-[1,4′]bipyridinyl-3′-yl)-amide]
< 1 µM: [1]; read-out: IC50 (μM) PIM1 | [2]; read-out: IC50 (μM) PIM3 | [3]; read-out: IC50 (μM) PIM2

CC(C)NC(=O)c1ccc(F)c(-c2ccc(N)c(C(=O)Nc3cnccc3N3CCCC4(CCNC4)C3)n2)c1 (stereo not drawn) [Example 291, 3-Amino-6-(2-fluoro-5-isopropylcarbamoyl-phenyl)-pyridine-2-carboxylic acid [4-(2,7-diaza-spiro[4.5]dec-7-yl)-pyridin-3-yl]-amide]
< 1 µM: [1]; read-out: IC50 (μM) PIM1 | [2]; read-out: IC50 (μM) PIM3 | [3]; read-out: IC50 (μM) PIM2

CCOc1cccc(-c2ccc(N)c(C(=O)Nc3cnccc3N3CCC[C@H](N)C3)n2)n1 [Example 723, 5-Amino-6′-ethoxy-[2,2′]bi-pyridinyl-6-carboxylic acid (3-amino-3,4,5,6-tetrahydro-2H-[1,4′]bipyridinyl-3′-yl)-amide]
< 1 µM: [1]; read-out: PIM1 IC50 | [2]; read-out: PIM3 IC50 | [3]; read-out: PIM2 IC50

Nc1cc(-c2ccncc2NC(=O)c2nc(-c3ccccc3F)ccc2N)nc(N)n1 [Example 627, 3-amino-N-[4-(2,6-diaminopyrimidin-4-yl)pyridin-3-yl]-6-(2-fluorophenyl)pyridine-2-carboxamide]
< 1 µM: [1]; read-out: PIM1 IC50 | [2]; read-out: PIM3 IC50 | [3]; read-out: PIM2 IC50

Cc1nc(-c2ccc(N)c(C(=O)Nc3cnccc3N3CCC[C@H](N)C3)n2)ccc1F [Example 708, 5-Amino-5′-fluoro-6′-methyl-[2,2′]bipyridinyl-6-carboxylic acid (3-amino-3,4,5,6-tetra-hydro-2H-[1,4′]bipyridinyl-3′-yl)-amide]
< 1 µM: [1]; read-out: PIM1 IC50 | [2]; read-out: PIM3 IC50 | [3]; read-out: PIM2 IC50

CC(C)NC(=O)c1ccc(F)c(-c2ccc(N)c(C(=O)Nc3cnccc3N3C[C@@H](N)C[C@H](OC(=O)c4ccccc4)C3)n2)c1 (stereo in doubt) [Example 294, Benzoic acid 5-amino-3′-{[3-amino-6-(2-fluoro-5-isopropylcarbamoyl-phenyl)-pyridine-2-carbonyl]-amino}-3,4,5,6-tetrahydro-2H-[1,4′]bi-pyridinyl-3-yl ester]
< 1 µM: [1]; read-out: IC50 (μM) PIM1 | [2]; read-out: IC50 (μM) PIM3 | [3]; read-out: IC50 (μM) PIM2

Nc1ccc(-c2ccc(F)cn2)nc1C(=O)Nc1cnccc1N1CCC[C@H](N)C1 [Example 727, 5-Amino-5′-fluoro-[2,2′]bi-pyridinyl-6-carboxylic acid (3-amino-3,4,5,6-tetrahydro-2H-[1,4′]bipyridinyl-3′-yl)-amide]
< 1 µM: [1]; read-out: PIM1 IC50 | [2]; read-out: PIM3 IC50 | [3]; read-out: PIM2 IC50

Nc1ccc(-c2cccc(C(F)(F)F)n2)nc1C(=O)Nc1cnccc1N1CCC[C@H](N)C1 [Example 718, 5-Amino-6′-trifluoromethyl-[2,2′]bipyridinyl-6-carboxylic acid (3-amino-3,4,5,6-tetra-hydro-2H-[1,4′]bipyridinyl-3′-yl)-amide]
< 1 µM: [1]; read-out: PIM1 IC50 | [2]; read-out: PIM3 IC50 | [3]; read-out: PIM2 IC50

CCCOc1ccc(F)c(-c2ccc(N)c(C(=O)Nc3cnccc3N3CCC[C@H](N)C3)n2)c1 [Example 468, 3-Amino-6-(2-fluoro-5-propoxy-phenyl)-pyridine-2-carboxylic acid (3-amino-3,4,5,6-tetrahydro-2H-[1,4′]bipyridinyl-3′-yl)-amide]
< 1 µM: [1]; read-out: IC50 (μM) PIM1 | [2]; read-out: IC50 (μM) PIM3 | [3]; read-out: IC50 (μM) PIM2

Nc1ccc(-c2cncc3ccccc23)nc1C(=O)Nc1cnccc1N1CCC[C@H](N)C1 [Example 692, 3-Amino-6-isoquinolin-4-yl-pyridine-2-carboxylic acid (3-amino-3,4,5,6-tetrahydro-2H-[1,4′]bipyridinyl-3′-yl)-amide]
< 1 µM: [1]; read-out: PIM1 IC50 | [2]; read-out: PIM3 IC50 | [3]; read-out: PIM2 IC50

Nc1ccc(-c2ncccc2C(F)(F)F)nc1C(=O)Nc1cnccc1N1CCC[C@H](N)C1 [Example 721, 5-Amino-3′-trifluoromethyl-[2,2′]bipyridinyl-6-carboxylic acid (3-amino-3,4,5,6-tetra-hydro-2H-[1,4′]bipyridinyl-3′-yl)-amide]
< 1 µM: [1]; read-out: PIM1 IC50 | [2]; read-out: PIM3 IC50 | [3]; read-out: PIM2 IC50

Nc1cnc(-c2c(F)cccc2F)nc1C(=O)Nc1cnccc1N1C[C@H](N)C[C@H](N)C1 [Example 246, 5-Amino-2-(2,6-difluoro-phenyl)-pyrimidine-4-carboxylic acid (3,5-diamino-3,4,5,6-tetra-hydro-2H-[1,4′]bipyridinyl-3′-yl)-amide]
< 1 µM: [1]; read-out: IC50 (μM) PIM1 | [2]; read-out: IC50 (μM) PIM3 | [3]; read-out: IC50 (μM) PIM2

Nc1cc(-c2ccncc2NC(=O)c2nc(-c3c(F)cccc3F)ccc2N)nc(C(F)(F)F)n1 [Example 266, 3-Amino-6-(2,6-difluoro-phenyl)-pyridine-2-carboxylic acid [4-(6-amino-2-trifluoromethyl-pyrimidin-4-yl)-pyridin-3-yl]-amide]
< 1 µM: [1]; read-out: IC50 (μM) PIM1 | [2]; read-out: IC50 (μM) PIM3 | [3]; read-out: IC50 (μM) PIM2
